# Results from US11802120B2, “Fused cyclic urea derivatives as CRHR2 antagonist” (RaQualia Pharma Inc., priority 2018, dated 2023).
# Target: T1, human CRHR2-alpha (Homo sapiens, UniProt Q13324)
# T1 sequence (Q13324 1-411): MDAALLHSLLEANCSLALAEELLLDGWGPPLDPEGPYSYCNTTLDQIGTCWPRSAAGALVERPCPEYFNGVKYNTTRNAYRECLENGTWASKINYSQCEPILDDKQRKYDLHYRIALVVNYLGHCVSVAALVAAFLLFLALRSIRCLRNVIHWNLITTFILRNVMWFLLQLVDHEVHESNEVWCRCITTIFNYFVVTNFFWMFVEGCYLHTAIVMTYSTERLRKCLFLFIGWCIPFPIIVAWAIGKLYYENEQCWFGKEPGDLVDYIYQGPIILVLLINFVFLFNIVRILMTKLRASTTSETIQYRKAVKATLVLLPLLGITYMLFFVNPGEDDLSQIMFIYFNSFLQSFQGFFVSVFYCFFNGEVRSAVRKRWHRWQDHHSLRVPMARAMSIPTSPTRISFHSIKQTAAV
# Assay: cAMP functional assay for human CRHR2 (LANCE Ultra cAMP, TR-FRET)
# Format: cell-based
# Settings: CHO-K1 cells expressing human CRHR2-alpha, agonist human urocortin2 at EC80, cAMP; read-out: IC50 against CRHR2
# Method in brief: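 IC50 values derive from percent inhibition of EC80 agonist-stimulated cAMP in CHO-K1 transfectants, with 0.5 mM IBMX present; the CRHR2 line was stimulated by human urocortin2 and the CRHR1 line by CRF.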
row,Structure (SMILES),IC50
1,"Cc1ncc(Cl)cc1C(=O)N[C@H]1CC[C@H](Cn2c(=O)n(-c3ccc(NC4CC4)nc3)c3ccccc32)CC1 [Example 101, 5-chloro-N-((1r,4r)-4-((3-(6-(cyclopropylamino)pyridin-3-yl)-2-oxo-2,3-dihydro-1H-benzo[d]imidazol-1-yl)methyl)cyclohexyl)-2-methylnicotinamide]",< 300 nM
2,"Cc1ncc(Cl)cc1C(=O)N[C@H]1CC[C@H](Cn2c(=O)n(-c3ccc(N4CCCC(O)C4)nc3)c3ccccc32)CC1 (stereo partly drawn) [Example 95, 5-chloro-N-((1r,4r)-4-((3-(6-(3-hydroxypiperidin-1-yl)pyridin-3-yl)-2-oxo-2,3-dihydro-1H-benzo[d]imidazol-1-yl)methyl)cyclohexyl)-2-methylnicotinamide]",< 300 nM
3,"Cc1ncc(Cl)cc1C(=O)N[C@H]1CC[C@H](Cn2c(=O)n(-c3cncc(N4CCCC4)c3)c3ccccc32)CC1 [Example 482, 5-chloro-2-methyl-N-((1r,4r)-4-((2-oxo-3-(5-(pyrrolidin-1-yl)pyridin-3-yl)-2,3-dihydro-1H-benzo[d]imidazol-1-yl)methyl)cyclohexyl)nicotinamide]",< 300 nM
4,"Cc1ncc(Cl)cc1C(=O)N[C@H]1CC[C@H](Cn2c(=O)n(-c3ccc4c(c3)cc(C(=O)N(C)C)n4C)c3ccccc32)CC1 [Example 405, 5-(3-(((1r,4r)-4-(5-chloro-2-methylnicotinamido)cyclo-hexyl)methyl)-2-oxo-2,3-dihydro-1H-benzo[d]imidazol-1-yl)-N,N,1-trimethyl-1H-indole-2-carboxamide]",< 300 nM
5,"Cc1ncc(Cl)cc1C(=O)N[C@H]1CC[C@H](Cn2c(=O)n(-c3cncc(N4CCOCC4)c3)c3ccccc32)CC1 [Example 413, 5-chloro-2-methyl-N-((1r,4r)-4-((3-(5-morpholinopyridin-3-yl)-2-oxo-2,3-dihydro-1H-benzo[d]imidazol-1-yl)methyl)cyclohexyl)nicotinamide]",< 300 nM
6,"O=C(N[C@H]1CC[C@H](Cn2c(=O)n(-c3ccc(N4CCNC4=O)nc3)c3ccccc32)CC1)c1cc(Cl)cnc1C(F)(F)F [Example 640, 5-chloro-N-((1r,4r)-4-((2-oxo-3-(6-(2-oxoimidazolidin-1-yl)pyridin-3-yl)-2,3-dihydro-1H-benzo[d]imidazol-1-yl)methyl)cyclohexyl)-2-(trifluoromethyl) nicotinamide]",< 300 nM
7,"CNc1cnc(-n2c(=O)n(C[C@H]3CC[C@H](NC(=O)c4cc(Cl)cnc4C(F)(F)F)CC3)c3ccccc32)cn1 [Example 298, 5-chloro-N-((1r,4r)-4-((3-(5-(methylamino)pyrazin-2-yl)-2-oxo-2,3-dihydro-1H-benzo[d]imidazol-1-yl)methyl)cyclo-hexyl)-2-(trifluoromethyl) nicotinamide]",< 300 nM
8,"Cc1ncc(Cl)cc1C(=O)N[C@H]1CC[C@H](Cn2c(=O)n(-c3ccc(NC4CCC4)nc3)c3ccccc32)CC1 [Example 125, 5-chloro-N-((1r,4r)-4-((3-(6-(cyclobutylamino)pyridin-3-yl)-2-oxo-2,3-dihydro-1H-benzo[d]imidazol-1-yl)methyl)cyclo-hexyl)-2-methylnicotinamide]",< 300 nM
9,"Cc1ncc(Cl)cc1C(=O)N[C@H]1CC[C@H](Cn2c(=O)n(-c3ccc(-c4ncc[nH]4)nc3)c3ccccc32)CC1 [Example 695, N-((1r,4r)-4-((3-(6-(1H-imidazol-2-yl)pyridin-3-yl)-2-oxo-2,3-dihydro-1H-benzo[d]imidazol-1-yl)methyl)cyclohexyl)-5-chloro-2-methylnicotinamide]",< 300 nM
10,"COc1ccc(-n2c(=O)n(C[C@H]3CC[C@H](NC(=O)c4cc(Cl)cnc4C)CC3)c3cccc(C)c32)cn1 [Example 58, 5-chloro-N-((1r,4r)-4-((3-(6-methoxypyridin-3-yl)-4-methyl-2-oxo-2,3-dihydro-1H-benzo[d]imidazol-1-yl)methyl)cyclohexyl)-2-methylnicotinamide]",< 300 nM

# Further lines, results first:
row,IC50,Structure (SMILES)
1,< 300 nM,"CNC(=O)c1ccc(-n2c(=O)n(C[C@H]3CC[C@H](NC(=O)c4cc(Cl)cnc4C(F)F)CC3)c3ccccc32)c(C)n1 [Example 556, 5-(3-(((1r,4r)-4-(5-chloro-2-(difluoromethyl)nicotina-mido)cyclohexyl)methyl)-2-oxo-2,3-dihydro-1H-benzo[d]imidazol-1-yl)-N,6-dimethylpicolinamide]"
2,< 300 nM,"O=C(N[C@H]1CC[C@H](Cn2c(=O)n(-c3ccnc(N4CCCC4=O)c3)c3ccccc32)CC1)c1cc(Cl)cnc1C(F)F [Example 706, 5-chloro-2-(difluoromethyl)-N-((1r,4r)-4-((2-oxo-3-(2-(2-oxopyrrolidin-1-yl)pyridin-4-yl)-2,3-dihydro-1H-benzo[d]imidazol-1-yl)methyl)cyclo-hexyl)nicotinamide]"
3,< 300 nM,"CNC(=O)c1ccc(-n2c(=O)n(C[C@H]3CC[C@H](NC(=O)c4cc(Cl)cnc4C(F)F)CC3)c3cccc(C)c32)cn1 [Example 527, 5-(3-(((1r,4r)-4-(5-chloro-2-(difluoromethyl)nicotinamido)cyclohexyl)methyl)-7-methyl-2-oxo-2,3-dihydro-1H-benzo [d]imidazol-1-yl)-N-methylpicolinamide]"
4,< 300 nM,"O=C(N[C@H]1CC[C@H](Cn2c(=O)n(-c3ccccc3F)c3ncccc32)CC1)c1cc(Cl)cnc1C(F)F [Example 449, 5-chloro-2-(difluoromethyl)-N-((1r,4r)-4-((3-(2-fluoro-phenyl)-2-oxo-2,3-dihydro-1H-imidazo[4,5-b]pyridin-1-yl)methyl)cyclohexyl) nicotinamide]"
5,< 300 nM,"O=C(N[C@H]1CC[C@H](Cn2c(=O)n(-c3cccc(-c4nnco4)c3)c3ccccc32)CC1)c1cc(Cl)cnc1C(F)F [Example 748, N-((1r,4r)-4-((3-(3-(1,3,4-oxadiazol-2-yl)phenyl)-2-oxo-2,3-dihydro-1H-benzo [d]imidazol-1-yl)methyl)cyclohexyl)-5-chloro-2-(difluoromethyl)nicotinamide]"
6,< 300 nM,"O=C(N[C@H]1CC[C@H](Cn2c(=O)n(-c3ccc4cnccc4c3)c3ccccc32)CC1)c1cc(Cl)cnc1C(F)F [Example 397, 5-chloro-2-(difluoromethyl)-N-((1r,4r)-4-((3-(isoquinolin-6-yl)-2-oxo-2,3-dihydro-1H-benzo[d]imidazol-1-yl)methyl)cyclohexyl)nicotinamide]"
7,< 300 nM,"CNc1ccc(-n2c(=O)n(C[C@H]3CC[C@H](NC(=O)c4cc(Cl)cnc4C(F)F)CC3)c3ccccc32)cn1 [Example 380, 5-chloro-2-(difluoromethyl)-N-((1r,4r)-4-((3-(6-(methyl-amino)pyridin-3-yl)-2-oxo-2,3-dihydro-1H-benzo[d]imidazol-1-yl)methyl)cyclo-hexyl)nicotinamide]"
8,< 300 nM,"CNc1ncc(-n2c(=O)n(C[C@H]3CC[C@H](NC(=O)c4cc(Cl)cnc4C(F)F)CC3)c3ccccc32)cc1C [Example 462, 5-chloro-2-(difluoromethyl)-N-((1r,4r)-4-((3-(5-methyl-6-(methylamino)pyridin-3-yl)-2-oxo-2,3-dihydro-1H-benzo [d]imidazol-1-yl)methyl)cyclo-hexyl)nicotinamide]"
9,< 300 nM,"Cc1cn(CCO)c2ncc(-n3c(=O)n(C[C@H]4CC[C@H](NC(=O)c5cc(Cl)cnc5C(F)F)CC4)c4ccccc43)cc12 [Example 731, 5-chloro-2-(difluoromethyl)-N-((1r,4r)-4-((3-(1-(2-hydroxyethyl)-3-methyl-1H-pyrrolo[2,3-b]pyridin-5-yl)-2-oxo-2,3-dihydro-1H-benzo[d]imidazol-1-yl)methyl)cyclohexyl)nicotinamide]"
10,< 300 nM,"O=C(NC1CC1)c1ccc(-n2c(=O)n(C[C@H]3CC[C@H](NC(=O)c4cc(Cl)cnc4C(F)F)CC3)c3ccccc32)cn1 [Example 585, 5-(3-(((1r,4r)-4-(5-chloro-2-(difluoromethyl)nicotinamido)cyclohexyl)methyl)-2-oxo-2,3-dihydro-1H-benzo[d]imidazol-1-yl)-N-cyclopropyl-picolinamide]"
11,< 300 nM,"CNC(=O)c1ccc(-n2c(=O)n(C[C@H]3CC[C@H](NC(=O)c4cc(Cl)cnc4C(F)F)CC3)c3ccc(OC)cc32)cn1 [Example 390, 5-(3-(((1r,4r)-4-(5-chloro-2-(difluoromethyl)nicotinamido)cyclohexyl)methyl)-6-me-thoxy-2-oxo-2,3-dihydro-1H-benzo[d]imidazol-1-yl)-N-methylpicolinamide]"
12,< 300 nM,"COc1ccc(Cl)c(-n2c(=O)n(C[C@H]3CC[C@H](NC(=O)c4cc(Cl)cnc4C(F)F)CC3)c3ncccc32)c1 [Example 675, 5-chloro-N-((1r,4r)-4-((1-(2-chloro-5-methoxyphenyl)-2-oxo-1H-imidazo[4,5-b]pyridin-3(2H)-yl)methyl)cyclohexyl)-2-(difluoro-methyl)nicotinamide]"
13,< 300 nM,"CNC(=O)COc1ccc(-n2c(=O)n(C[C@H]3CC[C@H](NC(=O)c4cc(Cl)cnc4C(F)F)CC3)c3ccccc32)cn1 [Example 500, 5-chloro-2-(difluoromethyl)-N-((1r,4r)-4-((3-(6-(2-(methylamino)-2-oxoethoxy)pyridin-3-yl)-2-oxo-2,3-dihydro-1H-benzo[d]imidazol-1-yl)methyl)cyclohexyl)nicotinamide]"
14,< 300 nM,"Cc1ccc(-n2c(=O)n(C[C@H]3CC[C@H](NC(=O)c4cc(Cl)cnc4C(F)F)CC3)c3cccnc32)cc1 [Example 389, 5-chloro-2-(difluoromethyl)-N-((1r,4r)-4-((2-oxo-3-(p-tolyl)-2,3-dihydro-1H-imidazo[4,5-b]pyridin-1-yl)methyl)cyclohexyl)nicotinamide]"
